Earlier results in US20250041489A1, “A Drug Coating Formulation for a Sirolimus Coated Balloon Catheter” (C. R. Bard, Inc., priority 2021, published 2025).

Details: compared to amorphous sirolimus

Half-life of sirolimus on the surface of a balloon: four weeks
Compound: CO[C@H]1C[C@@H]2CC[C@@H](C)[C@@](O)(O2)C(=O)C(=O)N2CCCC[C@H]2C(=O)O[C@H]([C@H](C)C[C@@H]2CC[C@@H](O)[C@H](OC)C2)CC(=O)[C@H](C)/C=C(\C)[C@@H](O)[C@@H](OC)C(=O)[C@H](C)C[C@H](C)/C=C/C=C/C=C/1C [crystalline sirolimus, sirolimus]
